We go through 23 substances from patent US8932597B2 (priority 2008, dated 2015).

Assay [1] deals with 14C2 antibody. The class given is binding.
The test system of assay [2] is mAb 8i10. It counts as binding, human.
The test system of assay [3] is mAb 23K12. It counts as binding, human.
For assay [4], the system named is 2N9 control antibody. The class given is binding.
The subject of assay [5] is HuM2e antibody 8I10. The class given is binding, human.
Assay [6] deals with HuM2e antibody 23K12. The class given is binding, human.

For the substance SLLTEVE [NM7], the “Binding activity to truncated M2 peptides, ELISA absorbance at 450 nm, 14C2” value (“Binding activity to truncated M2 peptides … 14C2” below) in assay [1] is given as 0.14. Also, in assay [2], the “Binding activity to truncated M2 peptides, ELISA absorbance at 450 nm, 8i10” value (from here on “Binding activity to truncated M2 peptides … 8i10”) turned out to be 0.10. Besides, the “Binding activity to truncated M2 peptides, ELISA absorbance at 450 nm, 23K12” value (shortened to “Binding activity … 23K12”) in assay [3] is 0.20. The “Binding activity to truncated M2 peptides, ELISA absorbance at 450 nm, 2N9” value (“Binding activity to truncated M2 peptides … 2N9” below) in assay [4] came out at 0.08.
Consider SLLTEVET [NM8], for which the “Binding activity to truncated M2 peptides … 14C2” value in assay [1] came out at 0.15. In addition, the “Binding activity to truncated M2 peptides … 8i10” value in assay [2] was determined as 0.10. Moreover, the “Binding activity … 23K12” value in assay [3] is given as 0.20. Besides, the “Binding activity to truncated M2 peptides … 2N9” value in assay [4] is 0.09.
In the case of ETPIRNEWGCRCNDSSD [CM17], the “Binding activity to truncated M2 peptides … 8i10” value in assay [2] is 0.11. Besides, the “Binding activity to truncated M2 peptides … 2N9” value in assay [4] is 0.11.
For SLLTEVETPIRNEWGCRCNDSSD [M2], the “Binding activity to truncated M2 peptides … 14C2” value in assay [1] was 3.85. For the same substance, the “Binding activity to truncated M2 peptides … 8i10” value in assay [2] came to 0.11. Besides, the “Binding activity … 23K12” value in assay [3] turned out to be 0.22. Also, the “Binding activity to truncated M2 peptides … 2N9” value in assay [4] is listed as 0.06.
Regarding SLLTEVETPIRNE [NM13], the “Binding activity to truncated M2 peptides … 8i10” value in assay [2] worked out at 0.11. In assay [4], the “Binding activity to truncated M2 peptides … 2N9” value is 0.10.
SLLTEVETPIRNEW [NM14]: the “Binding activity to truncated M2 peptides … 8i10” value in assay [2] is recorded as 0.11. In assay [4], the “Binding activity to truncated M2 peptides … 2N9” value amounted to 0.09.
Regarding SLLTEVETP [NM9], the “Binding activity to truncated M2 peptides … 8i10” value in assay [2] is 0.12. Further, the “Binding activity to truncated M2 peptides … 2N9” value in assay [4] amounted to 0.19.
For the substance TPIRNEWGCRCNDSSD [CM16], the “Binding activity to truncated M2 peptides … 14C2” value in assay [1] was found to be 0.23. Also, in assay [2], the “Binding activity to truncated M2 peptides … 8i10” value came out at 0.13. Besides, the “Binding activity … 23K12” value in assay [3] stood at 0.35. For the same substance, in assay [4], the “Binding activity to truncated M2 peptides … 2N9” value is given as 0.12.
For the substance SLLTEVETPIR [NM11], the “Binding activity to truncated M2 peptides … 14C2” value in assay [1] worked out at 0.21. In addition, the “Binding activity to truncated M2 peptides … 8i10” value in assay [2] is 0.13. In assay [3], the “Binding activity … 23K12” value is 0.30. Also, in assay [4], the “Binding activity to truncated M2 peptides … 2N9” value was found to be 0.12.
As for VETPIRNEWGCR [M12], the “Binding activity to truncated M2 peptides … 14C2” value in assay [1] was determined as 0.15. The “Binding activity to truncated M2 peptides … 8i10” value in assay [2] stood at 0.09. Besides, in assay [3], the “Binding activity … 23K12” value turned out to be 0.20. The “Binding activity to truncated M2 peptides … 2N9” value in assay [4] came to 0.09.
Take SLLTEVETPIRNEWGC [NM16]: in assay [1], the “Binding activity to truncated M2 peptides … 14C2” value was 3.90. Also, the “Binding activity to truncated M2 peptides … 8i10” value in assay [2] is given as 0.29. The “Binding activity … 23K12” value in assay [3] is 0.62. For the same substance, the “Binding activity to truncated M2 peptides … 2N9” value in assay [4] is 0.09.
Turning to RNEWGCRCNDSSD [CM13], in assay [2], the “Binding activity to truncated M2 peptides … 8i10” value was 0.14. The “Binding activity to truncated M2 peptides … 2N9” value in assay [4] is listed as 0.13.
As for SLLTEVETPIRN [NM12], in assay [1], the “Binding activity to truncated M2 peptides … 14C2” value is recorded as 0.20. In addition, the “Binding activity to truncated M2 peptides … 8i10” value in assay [2] amounted to 0.10. Also, the “Binding activity … 23K12” value in assay [3] was 0.24. The “Binding activity to truncated M2 peptides … 2N9” value in assay [4] was 0.09.
For the substance SLLTEVETPIRNEWG [NM15], the “Binding activity to truncated M2 peptides … 8i10” value in assay [2] is listed as 0.12. Further, the “Binding activity to truncated M2 peptides … 2N9” value in assay [4] is given as 0.11.
IRNEWGCRCNDSSD [CM14]: in assay [1], the “Binding activity to truncated M2 peptides … 14C2” value was 0.23. Besides, the “Binding activity to truncated M2 peptides … 8i10” value in assay [2] was 0.14. Further, the “Binding activity … 23K12” value in assay [3] was 0.36. The “Binding activity to truncated M2 peptides … 2N9” value in assay [4] is given as 0.13.
On the same counts, the results for LLTEVETPIRNEWGCR [M16] are 3.94, 0.09, 0.21 and 0.09.
Consider SLLTEVETPIRNEWGCR [NM17], for which, in assay [1], the “Binding activity to truncated M2 peptides … 14C2” value is listed as 3.99. Also, the “Binding activity to truncated M2 peptides … 8i10” value in assay [2] is reported as 0.26. Further, in assay [3], the “Binding activity … 23K12” value is 0.58. Further, in assay [4], the “Binding activity to truncated M2 peptides … 2N9” value stood at 0.10.
Take MSLLTEVETPIRNEWGCRCNDSSD [M2e]: the “Binding activity to truncated M2 peptides … 14C2” value in assay [1] was determined as 3.98. Besides, the “Binding activity to truncated M2 peptides … 8i10” value in assay [2] was 0.13. Also, the “Binding activity … 23K12” value in assay [3] was determined as 0.43. Besides, the “Binding activity to truncated M2 peptides … 2N9” value in assay [4] is listed as 0.10.
Turning to SLLTEVETPI [NM10], the “Binding activity to truncated M2 peptides … 14C2” value in assay [1] was 0.17. In assay [2], the “Binding activity to truncated M2 peptides … 8i10” value is listed as 0.10. Further, in assay [3], the “Binding activity … 23K12” value is 0.24. In addition, the “Binding activity to truncated M2 peptides … 2N9” value in assay [4] came out at 0.10.
“CSLLTECGSLLTCV (epitope peptide) [SEQ ID NO: 463]”: the “Binding to 8I10 (in words)” value in assay [5] was “very best specific binder”. In assay [6], the “Binding to 23K12 (in words)” value is “very best specific binder”.
As to LTEVETPIRNEWGCR [M15], in assay [2], the “Binding activity to truncated M2 peptides … 8i10” value is 0.09. In assay [4], the “Binding activity to truncated M2 peptides … 2N9” value turned out to be 0.09.
For the substance PIRNEWGCRCNDSSD [CM15], the “Binding activity to truncated M2 peptides … 8i10” value in assay [2] worked out at 0.12. Further, the “Binding activity to truncated M2 peptides … 2N9” value in assay [4] is 0.11.
As to NEWGCRCNDSSD [CM12], in assay [1], the “Binding activity to truncated M2 peptides … 14C2” value worked out at 0.27. The “Binding activity to truncated M2 peptides … 8i10” value in assay [2] was found to be 0.14. Further, the “Binding activity … 23K12” value in assay [3] is listed as 0.39. In assay [4], the “Binding activity to truncated M2 peptides … 2N9” value came out at 0.14.
